Source: patent US11459323B2, “Monocyclic β-lactam compound for treating bacterial infection” (MEDSHINE DISCOVERY INC., priority 2018, dated 2022)
In brackets after ≈: the same amount, converted by molar mass. Where two headings read alike, the source gives them in different places. Marks after values point to notes of the source that are not given here.

Key:
[1] = test system: K. pneumoniae ATCC BAA-205 (TEM-1/SHV-1/SHV-12); assay: MIC by micro-liquid dilution method (CLSI); format: cell-based, Klebsiella pneumonia; conditions: Klebsiella pneumoniae, ATCCBAA205
[2] = test system: K. pneumoniae ATCC BAA-1705 (KPC-2); assay: MIC by micro-liquid dilution method (CLSI); format: cell-based, Klebsiella pneumonia; conditions: Klebsiella pneumoniae, ATCCBAA1705
[3] = test system: K. pneumoniae ATCC BAA-2470 (NDM-1); assay: MIC by micro-liquid dilution method (CLSI); format: cell-based, Klebsiella pneumonia; conditions: Klebsiella pneumoniae, ATCCBAA2470
[4] = test system: E. coli ATCC BAA-2523 (OXA-48); assay: MIC by micro-liquid dilution method (CLSI); format: cell-based; conditions: Escherichia coli, ATCCBAA2523
Description: (§1) Three strains of Klebsiella pneumonia, K. pneumoniae ATCC BAA-205 (TEM-1/SHV-1/SHV-12), K. pneumoniae ATCC BAA-1705 (KPC-2), K. pneumoniae ATCC BAA-2470 (NDM-1); three strains of Pseudomonas aeruginosa, P. aeruginosa NCTC13437 (VIM-10; VEB-1), P. aeruginosa PA 14 and P. aeruginosa ATCC 35151; four strains of Escherichia coli, E. coli NCTC 13476 (IMP-1 type), E. coli ATCC BAA-2523 (OXA-48), E. coli MG1655Δtol C, E. coli ATCC 25922; one strain of Acinetobacter baumannii, A. baumannii ATCC 17978 and one strain of Staphylococcus aureus, S. aureus NRS384 were used to determine the minimum inhibitory concentration (MIC) of the compounds by micro-liquid dilution method according to the Institute of Clinical and Laboratory Standard (CLSI) requirements.

E. coli MG1655Δtol C = assay: MIC by micro-liquid dilution method (CLSI); format: cell-based; conditions: Escherichia coli
Description: as §1

[5] = test system: E. coli NCTC 13476 (IMP-1 type); assay: MIC by micro-liquid dilution method (CLSI); format: cell-based; conditions: Escherichia coli
Description: as §1

P. aeruginosa PA 14 = assay: MIC by micro-liquid dilution method (CLSI); format: cell-based; conditions: Pseudomonas aeruginosa, PA14
Description: as §1

P. aeruginosa ATCC 35151 = assay: MIC by micro-liquid dilution method (CLSI); format: cell-based; conditions: Pseudomonas aeruginosa
A. baumannii ATCC 17978 = assay: MIC by micro-liquid dilution method (CLSI); format: cell-based; conditions: Acinetobacter baumannii
E. coli ATCC 25922 = assay: MIC by micro-liquid dilution method (CLSI); format: cell-based; conditions: Escherichia coli
[6] = Pharmacokinetic experiment of the compounds in mice; format: in vivo; conditions: mouse, plasma, 2 mg/kg, Male CD-1 mice, fasting, 2 mpk; for Vd / clearance / AUC(0-t) / half-life / C0: intravenous injection; for Vd: read-out: Apparent distribution volume Vdss; for clearance: read-out: Clearance rate Cl; for AUC(0-t): read-out: Exposure AUC0-last; for half-life: read-out: Half-life period T1/2 (converted); for C0: read-out: Initial concentration C0; for bioavailability / Cmax: second section of Table 7 (intravenous injection); for Cmax: read-out: Maximum concentration Cmax
Description: In this experiment, six CD-1 mice (males) were divided into 2 groups (2 groups) according to their similar body weight. Group 1 and Group 2 were given respectively a single intravenous and intraperitoneal injection of the compounds of embodiment 13, embodiment 17, embodiment 32 and embodiment 34, each compound was at 2 mg/kg. The vehicles for intravenous and intraperitoneal injections were 5% dimethyl sulfoxide/95% water (10% polyoxyethylene castor oil), K2-EDTA (anticoagulant).
About 0.02 mL of blood samples from the saphenous vein were collected from all experimental animals, and the actual blood collection time was recorded. In this experiment, the deviation between the actual blood collection time and the theoretical blood collection time was in accordance with the regulations (the deviation of time points within 1 hour after administration were within 1 minute, and other deviations were within 5% of the theoretical time). After the blood samples were collected, they were immediately transferred to labeled centrifuge tubes containing K2 EDTA (0.5 M), followed by centrifugation (3,000 g, 4° C., 15 minutes) and the plasma was collected. The plasma was transferred to pre-cooled centrifuge tubes, quickly frozen in dry ice, and stored in an ultra-low temperature refrigerator at −60° C. or lower until LC-MS/MS analysis.

[7] = test system: Acinetobacter baumannii ATCC-BAA-1605; assay: MIC on Acinetobacter baumannii strains; format: cell-based; conditions: ATCCBAA1605, ATCC-BAA-1605, read-out: MIC
Description: (§2) Twelve strains of Acinetobacter baumannii, A. baumannii ATCC 17978 (ATCC-BAA-1605, ATCC-BAA-1789, ATCC-BAA-1790, ATCC-BAA-1791, ATCC-BAA-1792, ATCC-BAA-1793, ATCC-BAA-1794, ATCC-BAA-1795, ATCC-BAA-1799, ATCC-BAA-1800, ATCC 19606, ATCC 17978) were used to determine the minimum inhibitory concentration (MIC) of the compounds by micro-liquid dilution method according to the Institute of Clinical and Laboratory Standard (CLSI) requirements.

[8] = test system: Acinetobacter baumannii ATCC-BAA-1791; assay: MIC on Acinetobacter baumannii strains; format: cell-based; conditions: ATCCBAA1791
Description: as §2

[9] = test system: Acinetobacter baumannii ATCC-BAA-1793; assay: MIC on Acinetobacter baumannii strains; format: cell-based; conditions: ATCCBAA1793, ATCC-BAA-1793, read-out: MIC
Description: as §2

[10] = test system: Pseudomonas aeruginosa PA14; assay: Lungs of immunosuppressed mice infected with Pseudomonas aeruginosa (1), lung bacterial load; format: in vivo; conditions: 24 hours after infection, day, ip at 2 h, 4 h, 6 h, 8 h
Description: Pseudomonas aeruginosa PA14. 64 mice were intraperitoneally injected with 150 mg/kg cyclophosphamide on the first day and the fourth day to give immunosuppressed mice. […] [table] The mice were injected with 50 μL of bacterial solution (2×10^3 CFU) through the airway. 2 hours after the infection, 4 mice in the model group was sacrificed by removing cervical vertebra. Two hours after infection, the drugs were administered by groups, and the mice were administered intraperitoneally once at 2 hours, 4 hours, 6 hours, and 8 hours, a total of 4 times. Mice of each group were sacrificed by removing cervical vertebra 24 hours after infection, lung and kidney tissues were taken aseptically and put into sterilized tissue homogenate tubes, weighed, and an appropriate amount of normal saline (NS) was added, the mixture was homogenized by a homogenizer for 1 min, the lung tissues of the model group were diluted 10^4, 10^5, 10^6 times, the lung tissues of each administration group were diluted 10, 100 times, the kidney tissues of the model group were diluted 10^2, […], 10^4 times, and the lung tissues of each administration group were diluted 10 times, the obtained mixtures were coated on TSA plates using spiral coater, then incubated at 37° C. overnight, and the CFU was counted with a colony counter. Graphpad Prism mapping software was used to make scatter plots of lung tissue CFU. SPSS19.0 software was used to count CFU and average body weight, and analysis of variance was used to analyze differences between groups.

[11] = K. pneumoniae ATCCBAA-205, read-out: MIC
[12] = K. pneumoniae ATCCBAA-1705, read-out: MIC
[13] = K. pneumoniae ATCCBAA-2470, read-out: MIC
[14] = E. coli ATCCBAA-2523, read-out: MIC
[15] = E. coli NCTC13476, read-out: MIC
[16] = P. aeruginosa PA 14, read-out: MIC
[17] = A. baumannii ATCC17978, read-out: MIC
[18] = E. coli ATCC25922, read-out: MIC

Row | Structure (SMILES) | MIC [1, 11] [µg/mL] | MIC [2, 12] [µg/mL] | MIC [3, 13] [µg/mL] | MIC (E. coli MG1655Δtol C) [µg/mL] | MIC [5, 15] [µg/mL] | MIC (P. aeruginosa PA 14; [16]) [µg/mL] | MIC (A. baumannii ATCC 17978; [17]) [µg/mL] | MIC [4] [µg/mL] | MIC (P. aeruginosa ATCC 35151; ATCC35151) [µg/mL] | Vd [6] [L/kg] | clearance [6] [mL/min/kg] | AUC(0-t) [6] [µM·h] | half-life [6] [min] | C0 [6] [µM] | bioavailability [6] [%] | Cmax [6] [µM] | further results
1 | CC1(C)[C@H](NC(=O)/C(=N\OCCOc2ccc3c(c2)CN(C(=N)N)CC3)c2csc(N)n2)C(=O)N1OS(=O)(=O)O [Compound 10] | 16 (≈ 26.8 µM) | 4 (≈ 6.7 µM) | 4 (≈ 6.7 µM) | ≤ 0.125 | 2 (≈ 3.35 µM) | 8 (≈ 13.4 µM) | 4 (≈ 6.7 µM) | – | – | – | – | – | – | – | – | – | MIC [4, 14]: 0.25 µg/mL (≈ 0.419 µM); MIC (P. aeruginosa ATCC 35151; P. aeruginosa ATCC35151, read-out: MIC): 0.25 µg/mL (≈ 0.419 µM); MIC (E. coli ATCC 25922; [18]): 1 µg/mL (≈ 1.68 µM)
2 | CC1(C)[C@H](NC(=O)/C(=N\OCCOc2ccc3c(c2)CCN(C(=N)N2CCNCC2)C3)c2csc(N)n2)C(=O)N1OS(=O)(=O)O [Compound 11] | 16 (≈ 24 µM) | 1 (≈ 1.5 µM) | 1 (≈ 1.5 µM) | ≤ 0.125 | 0.5 (≈ 0.751 µM) | 4 (≈ 6.01 µM) | 2 (≈ 3 µM) | ≤ 0.125 | ≤ 0.125 | – | – | – | – | – | – | – | MIC (E. coli ATCC 25922; [18]): 0.25 µg/mL (≈ 0.376 µM)
3 | CC1(C)[C@H](NC(=O)/C(=N\OCCOc2ccc3c(c2)CCN(C(=N)NC2CCNCC2)C3)c2csc(N)n2)C(=O)N1OS(=O)(=O)O [Compound 12] | 16 (≈ 23.5 µM) | 1 (≈ 1.47 µM) | 1 (≈ 1.47 µM) | ≤ 0.125 | 0.25 (≈ 0.368 µM) | 2 (≈ 2.94 µM) | 0.5 (≈ 0.736 µM) | ≤ 0.125 | ≤ 0.125 | – | – | – | – | – | – | – | MIC (E. coli ATCC 25922; ATCC25922): ≤ 0.125 µg/mL
4 | CC1(C)[C@H](NC(=O)/C(=N\OCCOc2ccc3c(c2)CN(C(=N)NCCCN)C3)c2csc(N)n2)C(=O)N1OS(=O)(=O)O [Compound 13] | – | – | – | – | – | – | – | – | – | 0.281 | 8.51 | 6.73 | 28.6 | 18.9 | 88.4 | 5.76 | –
5 | CC1(C)[C@H](NC(=O)/C(=N\OCCOc2ccc3c(c2)CN(C(=N)N(CCCN)CCCN)C3)c2csc(N)n2)C(=O)N1OS(=O)(=O)O [Compound 17] | 2 (≈ 2.87 µM) | 0.25 (≈ 0.359 µM) | 0.25 (≈ 0.359 µM) | – | – | 0.5 (≈ 0.718 µM) | ≤ 0.125 | – | – | 0.237 | 4.6 | 11 | 35.8 | 17 | 131 | 10.6 | MIC [4, 14]: ≤ 0.125 µg/mL; MIC [7]: 4 µg/mL (≈ 5.74 µM); MIC [8]: 0.25 µg/mL (≈ 0.359 µM); MIC [9]: 4 µg/mL (≈ 5.74 µM)
6 | CC1(C)[C@H](NC(=O)/C(=N\O[C@@H](COc2ccc3c(c2)CN(C(=N)N(CCCN)CCCN)C3)C(=O)O)c2csc(N)n2)C(=O)N1OS(=O)(=O)O [Compound 32] | – | – | – | – | – | – | – | – | – | 0.0636 | 1.57 | 5.77 | 30.8 | 11.3 | 140 | 8 | LOG10-of bacterial load ([10]; total dosage 60 mg/kg): 0**; LOG10-of bacterial load ([10]; total dosage 120 mg/kg): 0**; LOG10-of bacterial load ([10]; total dosage 200 mg/kg): 0**
7 | CC1(C)[C@H](NC(=O)/C(=N\O[C@@H](COc2ccc3c(c2)CN(C(=N)NCCCN)C3)C(=O)O)c2csc(N)n2)C(=O)N1OS(=O)(=O)O [Compound 34] | – | – | – | – | – | – | – | – | – | 0.274 | 10.4 | 4.95 | 22.6 | 14.4 | 93.3 | 5.55 | LOG10-of bacterial load ([10]; total dosage 60 mg/kg): 0**; LOG10-of bacterial load ([10]; total dosage 120 mg/kg): 0**; LOG10-of bacterial load ([10]; total dosage 200 mg/kg): 1.10 ± 1.75
8 | CC1(C)[C@H](C(=O)O)N2C(=O)C[C@H]2S1(=O)=O [Sulbactam, reference compound] | – | – | – | 32 (≈ 137 µM) | – | – | – | 64 (≈ 274 µM) | 64 (≈ 274 µM) | – | – | – | – | – | – | – | MIC [1]: 64 µg/mL (≈ 274 µM); MIC [2]: > 128 µg/mL; MIC [3]: > 128 µg/mL; MIC ([5]; NCTC13476): > 128 µg/mL; MIC (P. aeruginosa PA 14): 8 µg/mL (≈ 34.3 µM); MIC (A. baumannii ATCC 17978; ATCC17978): 2 µg/mL (≈ 8.57 µM); MIC (E. coli ATCC 25922; ATCC25922): 64 µg/mL (≈ 274 µM)
